Columns and labels:
[1] = biological target: T1, Human KLKB1 protein (Homo sapiens, UniProt P03952); test: KLKB1 kallikrein protease inhibition assay (chromogenic substrate S-2302); format: biochemical; settings: 3 nM KLKB1, 250 μM S-2302, 10 min pre-incubation, RT, read at 405 nm
T1 construct: purchased Enzyme Research Labs
Experimental: The KLKB1 kallikrein activity reported herein (e.g., Table A) was obtained as follows. Human KLKB1 protein was obtained from Enzyme Research Labs. The chromogenic substrate S-2302 was obtained from DiaPharma. KLKB1 was assayed in buffer containing 0.05 M Tris (pH 7.4), 0.01 M NaCl and 0.2% w/v PEG-8000. The final concentration of enzyme used was 3 nM KLKB1. The final concentration of substrate used was 250 μM S-2302 for KLKB1. All assays were performed in 96-well microtiter plates at room temperature (RT). […] The plate was read at 10 minutes after substrate addition. The IC50 was calculated by plotting the percent (%) inhibition against compound concentration and fitting the data to a constrained four parameter sigmoidal curve, as known in the art.

[2] = biological target: T2, Human thrombin (Homo sapiens, UniProt P00734); test: thrombin protease inhibition assay (chromogenic substrate S-2238); format: biochemical; settings: 3 nM thrombin, 125 μM S-2238, 10 min pre-incubation, RT, read at 405 nm
T2 construct: Thrombin (fIIa, the active form of prothrombin) is another serine protease; purchased Haematologic Technologies Inc
Experimental: The thrombin activity reported herein (e.g., Table A) was obtained as follows. […] Thrombin was assayed in buffer containing 0.05 M Tris (pH 7.4), 0.015 M NaCl and 0.01% PEG-8000. The final concentration of enzyme used was 3 nM thrombin. […] All assays were performed in 96-well microtiter plates at room temperature (RT). […] Inhibitor IC50 values were determined by adding test compound as ten point, three-fold serial dilutions in buffer solution, as known in the art. The plate was read at 10 minutes after substrate addition. The IC50 was calculated by plotting the percent (%) inhibition against compound concentration and fitting the data to a constrained four parameter sigmoidal curve, as known in the art.

[3] = system: malignant breast tumors; settings: treated mice, cited from earlier work

T1 sequence (P03952 391-638 limits assumed): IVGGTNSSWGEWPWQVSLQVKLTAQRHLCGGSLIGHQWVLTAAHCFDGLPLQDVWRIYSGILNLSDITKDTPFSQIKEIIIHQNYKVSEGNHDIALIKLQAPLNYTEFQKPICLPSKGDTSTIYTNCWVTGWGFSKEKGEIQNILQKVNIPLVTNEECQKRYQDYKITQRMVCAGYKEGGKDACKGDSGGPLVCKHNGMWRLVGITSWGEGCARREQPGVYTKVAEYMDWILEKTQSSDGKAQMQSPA
T1 sequence (P03952 20-390 partner limits assumed): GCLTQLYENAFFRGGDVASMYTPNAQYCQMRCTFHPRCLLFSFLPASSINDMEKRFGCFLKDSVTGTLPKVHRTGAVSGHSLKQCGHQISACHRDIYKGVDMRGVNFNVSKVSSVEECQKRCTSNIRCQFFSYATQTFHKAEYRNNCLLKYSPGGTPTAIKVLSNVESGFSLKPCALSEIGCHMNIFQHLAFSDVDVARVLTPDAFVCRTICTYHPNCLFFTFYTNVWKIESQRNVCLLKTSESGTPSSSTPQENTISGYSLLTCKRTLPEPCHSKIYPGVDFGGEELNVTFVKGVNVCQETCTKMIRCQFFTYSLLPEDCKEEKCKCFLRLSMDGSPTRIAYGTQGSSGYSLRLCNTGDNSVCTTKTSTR

Row | SMILES | IC50 [1] [nM] | IC50 [2] [nM] | reduction in tumor volume ([3]; at 4 weeks) [%] | reduced tumor cells in the blood and liver micrometastases [3]
1 | COc1ccccc1C(=O)n1nc(-c2cc(-c3cccnc3)c[nH]c2=O)cc1NCc1ccc(Cl)s1 [Entry 3, 3-(5-[(5-chlorothiophen-2-yl)methyl]amino-1-(2-methoxybenzoyl)-1H-pyrazol-3-yl)-5-(pyridin-3-yl)-1,2-dihydropyridin-2-one] | 100 to 1000 | 100 to 1000 | – | –
2 | CC(C)(C)C(=O)n1nc(-c2cc(Br)c[nH]c2=O)cc1NCc1ccc(Cl)s1 [Entry 39, 5-bromo-3-(5-[(5-chlorothiophen-2-yl)methyl]amino-1-(2,2-dimethylpropanoyl)-1H-pyrazol-3-yl)-1,2-dihydropyridin-2-one] | 10000 to 100000 | < 100 | – | –
3 | O=c1[nH]cc(-c2cc(NCc3ccc(Cl)s3)[nH]n2)cc1Br [Entry 6, 3-bromo-5-(5-[(5-chlorothiophen-2-yl)methyl]amino-1H-pyrazol-3-yl)-1,2-dihydropyridin-2-one] | > 100000 | > 100000 | – | –
4 | O=C(c1ccsc1)n1nc(-c2ccn(Cc3ccccn3)c(=O)c2)cc1NCc1ccc(Cl)s1 [Entry 24, 4-(5-[(5-chlorothiophen-2-yl)methyl]amino-1-(thiophene-3-carbonyl)-1H-pyrazol-3-yl)-1-(pyridin-2-ylmethyl)-1,2-dihydropyridin-2-one] | < 100 | < 100 | – | –
5 | CC(C)(C)C(=O)n1nc(-c2c[nH]c(=O)c(-c3ccccc3)c2)cc1NCc1ccc(Cl)s1 [Entry 35, 5-(5-[(5-chlorothiophen-2-yl)methyl]amino-1-(2,2-dimethylpropanoyl)-1H-pyrazol-3-yl)-3-phenyl-1,2-dihydropyridin-2-one] | 10000 to 100000 | 1000 to 10000 | – | –
6 | O=c1ccc(-c2cc(NCc3ccc(Cl)s3)[nH]n2)c[nH]1 [Entry 38, 5-(5-[(5-chlorothiophen-2-yl)methyl]amino-1H-pyrazol-3-yl)-1,2-dihydropyridin-2-one] | > 100000 | > 100000 | – | –
7 | CC(C)(C)C(=O)n1nc(-c2ccn(Cc3ccccn3)c(=O)c2)cc1NCc1ccc(Cl)s1 [Entry 10, 4-(5-[(5-chlorothiophen-2-yl)methyl]amino-1-(2,2-dimethylpropanoyl)-1H-pyrazol-3-yl)-1-(pyridin-2-ylmethyl)-1,2-dihydropyridin-2-one] | 1000 to 10000 | < 100 | – | –
8 | COc1ccccc1C(=O)n1nc(-c2c[nH]c(=O)c(Br)c2)cc1NCc1ccc(Cl)s1 [Entry 5, 3-bromo-5-(5-[(5-chlorothiophen-2-yl)methyl]amino-1-(2-methoxybenzoyl)-1H-pyrazol-3-yl)-1,2-dihydropyridin-2-one] | 1000 to 10000 | 100 to 1000 | – | –
9 | CCCCCCOC(=O)N=C(N)c1ccc(NCc2nc3cc(C(=O)N(CCC(=O)OCC)c4ccccn4)ccc3n2C)cc1 [dabigatran etexilate] | – | – | 50 | 50-60%
10 | O=C(c1ccsc1)n1nc(-c2cc[nH]c(=O)c2)cc1NCc1ccc(Cl)s1 [Entry 22, 4-(5-[(5-chlorothiophen-2-yl)methyl]amino-1-(thiophene-3-carbonyl)-1H-pyrazol-3-yl)-1,2-dihydropyridin-2-one] | 100 to 1000 | < 100 | – | –
11 | O=c1cc(-c2cc(NCc3ccc(Cl)s3)[nH]n2)ccn1Cc1cccnc1 [Entry 30, 4-(5-[(5-chlorothiophen-2-yl)methyl]amino-1H-pyrazol-3-yl)-1-(pyridin-3-ylmethyl)-1,2-dihydropyridin-2-one] | > 100000 | > 100000 | – | –
12 | CC(C)(C)C(=O)n1nc(-c2cc(-c3ccccc3)c[nH]c2=O)cc1NCc1ccc(Cl)s1 [Entry 2, 3-(5-[(5-chlorothiophen-2-yl)methyl]amino-1-(2,2-dimethylpropanoyl)-1H-pyrazol-3-yl)-5-phenyl-1,2-dihydropyridin-2-one] | 10000 to 100000 | < 100 | – | –
13 | CC(C)(C)C(=O)n1nc(-c2cc[nH]c(=O)c2)cc1NCc1ccc(Cl)s1 [Entry 8, 4-(5-[(5-chlorothiophen-2-yl)methyl]amino-1-(2,2-dimethylpropanoyl)-1H-pyrazol-3-yl)-1,2-dihydropyridin-2-one] | 1000 to 10000 | < 100 | – | –
14 | O=C(c1ccoc1)n1nc(-c2ccn(CCN3CCOCC3)c(=O)c2)cc1NCc1ccc(Cl)s1 [Entry 21, 4-(5-[(5-chlorothiophen-2-yl)methyl]amino-1-(furan-3-carbonyl)-1H-pyrazol-3-yl)-1-[2-(morpholin-4-yl)ethyl]-1,2-dihydropyridin-2-one] | 100 to 1000 | < 100 | – | –
15 | CC(C)(C)C(=O)n1nc(-c2cc(Br)cn(CC(=O)N3CCOCC3)c2=O)cc1NCc1ccc(Cl)s1 [Entry 40, 5-bromo-3-(5-[(5-chlorothiophen-2-yl)methyl]amino-1-(2,2-dimethylpropanoyl)-1H-pyrazol-3-yl)-1-[2-(morpholin-4-yl)-2-oxoethyl]-1,2-dihydropyridin-2-one] | 1000 to 10000 | < 100 | – | –
16 | O=C(c1ccoc1)n1nc(-c2ccc(Br)c(=O)[nH]2)cc1NCc1ccc(Cl)s1 [Entry 7, 3-bromo-6-(5-[(5-chlorothiophen-2-yl)methyl]amino-1-(furan-3-carbonyl)-1H-pyrazol-3-yl)-1,2-dihydropyridin-2-one] | 10000 to 100000 | 100 to 1000 | – | –
17 | CC(C)(C)C(=O)n1nc(-c2ccn(Cc3cccnc3)c(=O)c2)cc1NCc1ccc(Cl)s1 [Entry 11, 4-(5-[(5-chlorothiophen-2-yl)methyl]amino-1-(2,2-dimethylpropanoyl)-1H-pyrazol-3-yl)-1-(pyridin-3-ylmethyl)-1,2-dihydropyridin-2-one] | 100 to 1000 | < 100 | – | –
18 | O=C(c1ccco1)n1nc(-c2cc(-c3cccnc3)[nH]c(=O)c2)cc1NCc1ccc(Cl)s1 [Entry 15, 4-(5-[(5-chlorothiophen-2-yl)methyl]amino-1-(furan-2-carbonyl)-1H-pyrazol-3-yl)-6-(pyridin-3-yl)-1,2-dihydropyridin-2-one] | > 100000 | 1000 to 10000 | – | –

Reference: patent publication US10189810B2, “Pyrazolyl-substituted pyridone compounds as serine protease inhibitors” (VERSEON CORPORATION, priority 2014, dated 2019)
